US20150344502A1, “CEPHEM COMPOUND” (SHIONOGI & CO., LTD., priority 2012, published 2015)
In brackets after ≈: the same amount, converted by molar mass.

Tests used:
Format in all cases: cell-based
A. baumannii 1484820 = experiment: MIC, broth microdilution (CLSI), A. baumannii 1484820; conditions: Acinetobacter baumannii, 5×10^5 cfu/mL, cation-adjusted Iso-Sensitest broth containing human Apo-transferrin, read-out: Minimum Inhibitory Concentration (MIC)
Protocol: (§1) Compound (I) of the present invention was evaluated for in vitro antimicrobial activity thereof.
(§2) Measurement of Minimum Inhibitory Concentration (MIC: μg/mL) was conducted according to CLSI (Clinical and Laboratory Standards Institute) method, and the amount of bacteria for inoculation was 5×10^5 cfu/mL, and cation-adjusted Iso-Sensitest broth containing human Apo-transferrin was used as a test medium, and the experiment was conducted using broth microdilution method.

P. aeruginosa 378057 = experiment: MIC, broth microdilution (CLSI), P. aeruginosa 378057; conditions: Pseudomonas aeruginosa, 5×10^5 cfu/mL, cation-adjusted Iso-Sensitest broth containing human Apo-transferrin, read-out: Minimum Inhibitory Concentration (MIC)
Protocol: as §1, §2

E. Coli ATCC BAA-200 = experiment: MIC, broth microdilution (CLSI), E. Coli ATCC BAA-200; conditions: Escherichia coli, ATCCBAA200; E. Coli ATCC BAA-200, SHV-4, ESBL producing strain; 5×10^5 cfu/mL; cation-adjusted Iso-Sensitest broth containing human Apo-transferrin; read-out: Minimum Inhibitory Concentration (MIC)
Protocol: as §1, §2

E. Coli ATCC BAA-196 = experiment: MIC, broth microdilution (CLSI), E. Coli ATCC BAA-196; conditions: Escherichia coli, ATCCBAA196; E. Coli ATCC BAA-196, TEM-10, ESBL producing strain; 5×10^5 cfu/mL; cation-adjusted Iso-Sensitest broth containing human Apo-transferrin; read-out: Minimum Inhibitory Concentration (MIC)
Protocol: as §1, §2

E. cloacae 1481026 = experiment: MIC, broth microdilution (CLSI), E. cloacae 1481026; conditions: Enterobacter cloacae, 5×10^5 cfu/mL, cation-adjusted Iso-Sensitest broth containing human Apo-transferrin, read-out: Minimum Inhibitory Concentration (MIC)
Protocol: as §1, §2

| MIC (A. baumannii 1484820) [µg/mL] | MIC (P. aeruginosa 378057) [µg/mL] | MIC (E. Coli ATCC BAA-200) [µg/mL] | MIC (E. Coli ATCC BAA-196) [µg/mL] | MIC (E. cloacae 1481026) [µg/mL] | Structure (SMILES) |
| --- | --- | --- | --- | --- | --- |
| 0.25 (≈ 0.321 µM) | 0.063 (≈ 0.081 µM) | 0.125 (≈ 0.161 µM) | 0.125 (≈ 0.161 µM) |  | CC(C)(O/N=C(\C(=O)N[C@@H]1C(=O)N2C(C(=O)O)=C(C[N+]3(CCN4C(=O)c5c(Cl)cc(O)c(O)c5C4=O)CCCC3)CS[C@H]12)c1csc(N)n1)C(=O)[O-] [Compound I-3] |
| 0.063 (≈ 0.0821 µM) | ≤ 0.031 | 0.125 (≈ 0.163 µM) | 0.063 (≈ 0.0821 µM) | 0.5 (≈ 0.651 µM) | CC(C)(O/N=C(\C(=O)N[C@@H]1C(=O)N2C(c3nnn[nH]3)=C(C[N+]3(CCN4C(=O)c5ccc(O)c(O)c5C4=O)CCCC3)CS[C@H]12)c1csc(N)n1)C(=O)[O-] [Compound I-11] |
| 0.25 | ≤ 0.031 | 0.063 | 0.063 | 0.5 | CC[N+](CC)(CCN1C(=O)c2ccc(O)c(O)c2C1=O)CC1=C(C(=O)[O-])N2C(=O)[C@@H](NC(=O)/C(=N\O[C@@H](CC(=O)[O-])C(=O)[O-])c3csc(N)n3)[C@H]2SC1.[Na+].[Na+] [Compound I-18] |
| 0.125 (≈ 0.156 µM) | ≤ 0.031 | 0.063 (≈ 0.0785 µM) | ≤ 0.031 | 0.5 (≈ 0.623 µM) | CC(C)(O/N=C(\C(=O)N[C@@H]1C(=O)N2C(c3nnn[nH]3)=C(C[N+]3(CCN4C(=O)c5ccc(O)c(O)c5C4=O)CCCC3)CS[C@H]12)c1nc(N)sc1Cl)C(=O)[O-] [Compound I-14] |
| 1 | ≤ 0.031 | 0.125 | ≤ 0.031 | 1 | CC(C)(O/N=C(\C(=O)N[C@@H]1C(=O)N2C(C(=O)[O-])=C(C[N+]34CCC(Cn5ncc6cc(O)c(O)cc6c5=O)(CC3)C4)CS[C@H]12)c1csc(N)n1)C(=O)[O-].[Na+] [Compound I-22] |
| 0.5 (≈ 0.713 µM) | 0.063 (≈ 0.0898 µM) | 0.25 (≈ 0.356 µM) | 0.125 (≈ 0.178 µM) | 4 (≈ 5.7 µM) | CC(C)(O/N=C(\C(=O)N[C@@H]1C(=O)N2C(C(=O)O)=C(C[N+]3(Cc4noc5cc(O)c(O)cc45)CCCC3)CS[C@H]12)c1csc(N)n1)C(=O)[O-] [Compound I-9] |
| 0.25 (≈ 0.33 µM) | ≤ 0.031 | 0.125 (≈ 0.165 µM) | 0.063 (≈ 0.0831 µM) | 0.5 (≈ 0.66 µM) | CC(C)(O/N=C(\C(=O)N[C@@H]1C(=O)N2C(C(=O)O)=C(C[N+]3(CCN4C(=O)c5ccc(O)c(O)c5C4=O)CCCCC3)CS[C@H]12)c1csc(N)n1)C(=O)[O-] [Compound I-7] |
| 0.25 | ≤ 0.031 | 0.063 | 0.063 | 0.5 | CC[N+](CC)(CCN1C(=O)c2ccc(O)c(O)c2C1=O)CC1=C(c2nn[nH]n2)N2C(=O)[C@@H](NC(=O)/C(=N\OC(C)(C)C(=O)O)c3csc(N)n3)[C@H]2SC1.[Na+] [Compound I-19] |
| 0.25 | 0.063 | 0.125 | 0.125 | 0.5 | CC(C)(O/N=C(\C(=O)N[C@@H]1C(=O)N2C(c3nnn[n-]3)=C(C[N+]3(CCN4C(=O)c5ccc(O)c(O)c5C4=O)CCCCC3)CS[C@H]12)c1csc(N)n1)C(=O)[O-].[Na+] [Compound I-15] |
| 0.5 | ≤ 0.031 | 0.063 | 0.063 | 0.5 | CC[N+](CC)(CCN1C(=O)c2ccc(O)c(O)c2C1=O)CC1=C(C(=O)[O-])N2C(=O)[C@@H](NC(=O)/C(=N\OC(C)(C)C(=O)[O-])c3csc(N)n3)[C@H]2SC1.[Na+] [Compound I-17] |

| Structure (SMILES) | MIC (A. baumannii 1484820) [µg/mL] | MIC (P. aeruginosa 378057) [µg/mL] | MIC (E. Coli ATCC BAA-200) [µg/mL] | MIC (E. Coli ATCC BAA-196) [µg/mL] | MIC (E. cloacae 1481026) [µg/mL] |
| --- | --- | --- | --- | --- | --- |
| CC(C)(O/N=C(\C(=O)N[C@@H]1C(=O)N2C(C(=O)[O-])=C(C[N+]34CCC(CNC(=O)C(=O)c5cc(O)c(O)c(F)c5)(CC3)CC4)CS[C@H]12)c1csc(N)n1)C(=O)[O-].[Na+] [Compound I-20] | 4 | ≤ 0.031 | 0.25 | 0.063 | 2 |
| CC(C)(O/N=C(\C(=O)N[C@@H]1C(=O)N2C(C(=O)O)=C(C[N+]34CCC(CN5C(=O)c6ccc(O)c(O)c6C5=O)(CC3)CC4)CS[C@H]12)c1csc(N)n1)C(=O)[O-] [Compound I-5] | 1 (≈ 1.3 µM) | ≤ 0.031 | 0.25 (≈ 0.325 µM) | 0.25 (≈ 0.325 µM) | 16 (≈ 20.8 µM) |
